Patent EP0312245A2, “Polycyclic compounds and pharmaceutical compositions thereof” (NORISTAN HOLDINGS LIMITED, priority 1987, dated 1989)
Several values for one entry are separate records, joined by “and”; a condition that tells them apart may be missing. Identical values can stand only once.

What was measured:
[1] = system: BD-9 rats (normatensive); assay: Antihypertensive test: mean arterial pressure in normotensive BD-9 rats; type: in vivo, rat; set-up: mean arterial BP (individual rats): unit not given here; conditions: 1mg/kg intravenous; for mean arterial BP (individual rats): rats 1-6, 1 mg/kg; for mean arterial BP, Av. / Average % change in mean arterial BP: standard error of the mean in brackets; for Average % change in mean arterial BP: versus pre-dose control
Procedure: (§1) The effect of Compound 3 on the mean arterial pressure was determined on spontaneously hypertensive rats (SHR ) by means of direct pressure transducing. Groups of 6 male rats of mass 210-300g were used. The average of ten pressure determinations was used. Normotensive (BD-9) rats were used as animal controls, while normal saline solution (containing some traces of polyethylene glycol and ethanol to aid in the solution of the test compounds) was used as solvent and as solvent control.
(§2) After verifying the mass of the animal, it was placed under general anaesthesia by administering 60mgikg pentobarbitone (Sagatal@) intraperitonially. The tracheal tube and carotid artery were both exposed by dissection. An intranule was introduced into the trachea as aid ventilation. The carolid artery was canalated and coupled to a pressure sensor. The sysolic, diastolic and mean arterial pressure were monitored via a Spacelab 514 patient monitor and registered on a Vitatek 551 plotter. During the experiment the exposed tissue of the rat was covered with guaze and kept damp with normal saline.
(§3) The drugs and solvent controls were administered intravenously into the dorsal penile vein after stabilization of the blood pressure (BP) had occurred. After drug administration, the BP was recorded every 5 minutes for a period of 30 min.

[2] = system: spontaneously hypertensive rats (SHR ); assay: Antihypertensive test: mean arterial pressure in spontaneously hypertensive rats; type: in vivo, rat; set-up: mean arterial BP (individual rats): unit not given here; conditions: SHR, 1mg/kg intravenous; for mean arterial BP (individual rats): rats 1-6, 1 mg/kg; for mean arterial BP, Av. / Average % change in mean arterial BP: standard error of the mean in brackets; for Average % change in mean arterial BP: versus pre-dose control
Procedure: as §1, §2, §3

[3] = system: isolated rabbit ear preparation; assay: Rabbit ear perfusion test (adrenaline-induced tone, perfusion pressure); conditions: Oryctolagus cuniculus, Table 6, read-out: Corrected mean % change in perfusion pressurre
Procedure: Female New Zealand White rabbits (approximately 4kg) were anaesthetised with Sagatal ® (0.5ml/kg).
The central ear artery was cannulated using a 20 G catheter and the ear cut off at its base. Heparinised (5ml, 200 IU;ml) Krebs bicarbonate solution was perfused through the ear to expel the blood. The ear was placed in a warming jacket at 37°C and attached via the arterial catheter to the perfusion pump. Perfusion of the ear with aerated (95% 025% C02)Krebs bicarbonate solution at 37° C was commenced at a rate of 6.5ml/min using a Watson Marlow peristaltic pump. The perfusion pressure was monitored continuously using a pressure transducer (Type 4-327-1221, Consoliated Electrodynamics) coupled to a Devices Recorder.
Following an equilibration period of 15 minutes, increased tone was induced in the preparation by addition of adrenaline (1µg/ml) to the perfusion fluid.
After a stable tone was observed, various concentrations of test compounds were injected into the perfusion fluid and examined for their effect on the perfusion pressure. The effect of vehicle (0.2ml, 50% Krebs 50% ethanol) was also tested on the ear preparation.

SMILES: COC(=O)C1=C(C)NC(C)=C(C(=O)OC)C1c1ccccc1[N+](=O)[O-] [Nifedipine]
- mean arterial BP (individual rats) ([1]; 5 min): 67 and 59 (2×) and 80 and 74 and 60
- mean arterial BP, Av. ([1]; 5 min): 67(4)
- Average % change in mean arterial BP ([1]; 5 min): 38(5.5) %
- mean arterial BP (individual rats) ([1]; 10 min): 65 and 67 (2×) and 74 and 69 and 66
- mean arterial BP, Av. ([1]; 10 min): 68(1)
- Average % change in mean arterial BP ([1]; 10 min): 37(4.4) %
- mean arterial BP (individual rats) ([1]; 15 min): 68 and 66 (2×) and 65 and 74 and 63
- mean arterial BP, Av. ([1]; 15 min): 67(2)
- Average % change in mean arterial BP ([1]; 15 min): 38(3.8) %
- mean arterial BP (individual rats) ([1]; 20 min): 67 and 60 and 62 and 77 and 65 and 64
- mean arterial BP, Av. ([1]; 20 min): 66(2)
- Average % change in mean arterial BP ([1]; 20 min): 39(3.1) %
- mean arterial BP (individual rats) ([1]; 25 min): 63 (2×) and 55 and 62 and 80 and 67
- mean arterial BP, Av. ([1]; 25 min): 65(3)
- Average % change in mean arterial BP ([1]; 25 min): 40(2.8) %
- mean arterial BP (individual rats) ([1]; 30 min): 61 and 57 and 63 and 79 and 60 and 62
- mean arterial BP, Av. ([1]; 30 min): 64(3)
- Average % change in mean arterial BP ([1]; 30 min): 41(3.4) %
- mean arterial BP (individual rats) ([2]; 5 min): 105 and 67 and 88 and 85 and 80 and 74
- mean arterial BP, Av. ([2]; 5 min): 83(5)
- Average % change in mean arterial BP ([2]; 5 min): 44(5.4) %
- mean arterial BP (individual rats) ([2]; 10 min): 96 and 64 and 104 and 88 and 81 and 74
- mean arterial BP, Av. ([2]; 10 min): 85(6)
- Average % change in mean arterial BP ([2]; 10 min): 43(6.0) %
- mean arterial BP (individual rats) ([2]; 15 min): 95 and 68 and 107 and 93 and 84 and 77
- mean arterial BP, Av. ([2]; 15 min): 87(6)
- Average % change in mean arterial BP ([2]; 15 min): 41(5.8) %
- mean arterial BP (individual rats) ([2]; 20 min): 93 and 69 and 92 and 100 and 83 and 80
- mean arterial BP, Av. ([2]; 20 min): 86(5)
- Average % change in mean arterial BP ([2]; 20 min): 42(4.2) %
- mean arterial BP (individual rats) ([2]; 25 min): 95 and 71 and 93 and 106 and 79 and 84
- mean arterial BP, Av. ([2]; 25 min): 88(5)
- Average % change in mean arterial BP ([2]; 25 min): 41(4.4) %
- mean arterial BP (individual rats) ([2]; 30 min): 95 and 73 and 93 and 110 and 81 and 85
- mean arterial BP, Av. ([2]; 30 min): 90(5)
- Average % change in mean arterial BP ([2]; 30 min): 40(4.3) %
- inhibition at 0.01 mg ([3]; dose 10 μg): 4%
- inhibition at 0.0316 mg ([3]; dose 31.6 μg): 0.5%
- inhibition at 0.1 mg ([3]; dose 100 μg): 9.5%
- inhibition at 0.316 mg ([3]; dose 316 μg): -26%
- inhibition at 1 mg ([3]; dose 1000 μg): 39.5%
